In patent publication US5225417A, “Opioid agonist compounds” (priority 1992, dated 1993):
Counter-ions that a name gives are not always drawn.

Assays:
mice or rats [1] = conditions: background statement; cited from earlier work
mice or rats [2] = experiment: Tail Flick Assay; format: in vivo
From the text: The "Tail Flick Assay" uses thermal pain of transient duration, and is a test in which the pain threshold of the mice or rats being analyzed has not been altered. It is useful for evaluating the ability of a compound or drug to increase the animal's pain threshold (i.e. prolong response latencies), rather than to restore normal thresholds.
The heat-induced response to the Tail Flick Assay is a reflex reaction mediated at the level of the spinal cord.
Opiate compounds having clinical efficacy as analgesics generally increase tail flick latencies. Thus, morphine and codeine are generally determined to be active in this test.
The Tail Flick Assay was performed generally in the manner described by G. Woolfe et al., "The Evaluation of the Analgesic Action of Pethidine Hydrochloride (Demerol)," J. Pharmacol. Exp. Ther., 80, 300, (1944), F. D'Amour et al., "A Method for Determining Loss of Pain Sensation," J. Pharmacol. Exp. Ther., 72, 74, 300-307 (1941), and E. Drower et al., "The Antinociceptive Effects of Prostaglandin Antagonists in the Rat," European Journal of Pharmacology, 133, 249-256 (1987).
Male Charles River albino mice and male Charles River Sprague-Dawley rats weighing 20 to 30 g and 200 to 250 g, respectively, was employed in this assay.
Tail flick response latencies (defined as the time that elapsed between the onset of a high intensity beam of light and the reflex removal of the mouse or rat's tail) was measured before (baseline) and again at fixed intervals after subcutaneous or intracerebro-ventricular administration of one of the compounds of the invention, or after the administration of saline (controls). The cut-off latencies established to prevent tissue damage in the animals are 12 seconds or 14 seconds in the mouse and rat, respectively, in the Tail Flick Assay. The significance of any increase in tail flick response latency is determined using analyses of variance.
One way analyses of variance were used to determine the significance of the effect of the compounds of the invention on response latencies.
"Activity" or "Inactivity" was determined at a particular concentration of the compound by a significant increase in tail flick latency above normal latencies.
The numbers in parentheses are calculated ED50 values.

μ opioid receptor = μ opioid receptor (Rattus norvegicus, UniProt P33535); experiment: Opiate Binding Assay, μ receptor (3[H]-DAMGO displacement); conditions: rat forebrain membranes, 3[H]-DAMGO 2.0 nM, 37° C., pH 7.4
Sequence of μ opioid receptor (P33535 whole entry): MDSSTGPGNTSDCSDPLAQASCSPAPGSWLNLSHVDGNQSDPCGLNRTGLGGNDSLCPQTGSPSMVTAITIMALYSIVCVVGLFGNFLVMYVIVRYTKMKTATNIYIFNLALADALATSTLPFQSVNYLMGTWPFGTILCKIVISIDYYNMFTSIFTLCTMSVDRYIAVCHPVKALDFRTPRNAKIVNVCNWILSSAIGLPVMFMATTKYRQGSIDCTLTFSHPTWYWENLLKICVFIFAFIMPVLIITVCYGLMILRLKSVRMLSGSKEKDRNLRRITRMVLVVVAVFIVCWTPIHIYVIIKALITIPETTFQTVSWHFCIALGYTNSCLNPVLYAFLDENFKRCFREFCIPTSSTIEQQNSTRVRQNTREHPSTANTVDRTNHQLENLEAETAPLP

δ opioid receptor = δ opioid receptor (Rattus norvegicus, UniProt P33533); experiment: Opiate Binding Assay, δ receptor (3[H]-DSLET displacement)
Sequence of δ opioid receptor (P33533 whole entry): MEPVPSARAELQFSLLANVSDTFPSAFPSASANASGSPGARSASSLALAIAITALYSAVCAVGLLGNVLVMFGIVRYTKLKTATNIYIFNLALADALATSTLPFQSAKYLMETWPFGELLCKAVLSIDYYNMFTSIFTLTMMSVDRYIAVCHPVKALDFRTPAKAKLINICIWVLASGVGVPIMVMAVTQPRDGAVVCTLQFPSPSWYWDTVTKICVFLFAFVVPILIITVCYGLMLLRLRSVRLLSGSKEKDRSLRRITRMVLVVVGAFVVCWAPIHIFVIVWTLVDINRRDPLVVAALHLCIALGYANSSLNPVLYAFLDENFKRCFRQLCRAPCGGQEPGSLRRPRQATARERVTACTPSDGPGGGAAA

CC(=O)Oc1ccccc1C(=O)O [aspirin]
activity in tail flick test (general knowledge) (mice or rats [1]): little activity

COc1ccc2c3c1O[C@H]1[C@@H](O)C=C[C@H]4[C@@H](C2)N(C)CC[C@@]341 [codeine]
activity in tail flick test (general knowledge) (mice or rats [1]): active

Cc1cc(CC(=O)O)n(C)c1C(=O)c1ccc(Cl)cc1 [Zomax]
activity in tail flick test (general knowledge) (mice or rats [1]): little activity

CN1CC[C@]23c4c5ccc(O)c4O[C@H]2[C@@H](O)C=C[C@H]3[C@H]1C5 [morphine]
activity in tail flick test (general knowledge) (mice or rats [1]): active

Oc1ccc2c3c1O[C@H]1c4oc5ccccc5c4C[C@@]4(O)[C@@H](C2)N(Cc2ncc[nH]2)CC[C@]314 (relative stereo) [Example XV, 5,6,7,8,14,14bβ-Hexahydro-(1H-imidazol-2-ylmethyl)-4,8(R,α)-methano-4bS*-benzofuro[2,3-a]pyrido [4,3-b]carbazole-1,8aβ(9H)-diol, hydrochloride]
Tail flick activity, intracerebroventricular (mice or rats [2]; intracerebroventricular): ~ 10 nmoles | active dose in tail flick, intracerebroventricularly (mice or rats [2]; intracerebroventricular): ca. 10 nmoles | Tail flick activity, subcutaneous (active at) (mice or rats [2]; subcutaneous): inactive | Mean IC50 Value, μ (μ opioid receptor): inactive | IC50 (δ opioid receptor): 0.0792 µM
